A short description of assay [1]: Induction of molecular glue effect mediated DNMT1 degradation in human MDA-MB-468 cells assessed as reduction in DNMT1 protein level incubated for 24 hrs by Western blot analysis. Conditions: MDA-MB-468, 24 h. Type of assay: cell-based. (A western blot detects proteins with antibodies after separation by electrophoresis.)
For assay [2], the system named is HCT-116. The assay is described as follows: Induction of molecular glue effect mediated DNMT3A degradation in human HCT-116 cells assessed as reduction in DNMT3A protein level at 500 nM incubated for 24 hrs by Western blot analysis. In kind it is cell-based.
Assay [3] has as its system HCT-116. The assay is described as follows: Induction of molecular glue effect mediated DNMT1 degradation in human HCT-116 cells transfected with Smurf2 siRNA assessed as reduction in DNMT1 protein level at 100 nM measured after 24 hrs by Western blot analysis. Type of assay: cell-based.
In assay [4] the target is Histone-lysine N-methyltransferase, H3 lysine-79 specific (Homo sapiens) (UniProt Q8TEK3). In words: Inhibition of human DOT1L using oligo nucleosomes and SAM as substrate at 1 uM by radioisotope-based MT HotSpot assay relative to control.
Histone-lysine N-methyltransferase, H3 lysine-79 specific (Homo sapiens), sequence (Q8TEK3 whole entry, looked up): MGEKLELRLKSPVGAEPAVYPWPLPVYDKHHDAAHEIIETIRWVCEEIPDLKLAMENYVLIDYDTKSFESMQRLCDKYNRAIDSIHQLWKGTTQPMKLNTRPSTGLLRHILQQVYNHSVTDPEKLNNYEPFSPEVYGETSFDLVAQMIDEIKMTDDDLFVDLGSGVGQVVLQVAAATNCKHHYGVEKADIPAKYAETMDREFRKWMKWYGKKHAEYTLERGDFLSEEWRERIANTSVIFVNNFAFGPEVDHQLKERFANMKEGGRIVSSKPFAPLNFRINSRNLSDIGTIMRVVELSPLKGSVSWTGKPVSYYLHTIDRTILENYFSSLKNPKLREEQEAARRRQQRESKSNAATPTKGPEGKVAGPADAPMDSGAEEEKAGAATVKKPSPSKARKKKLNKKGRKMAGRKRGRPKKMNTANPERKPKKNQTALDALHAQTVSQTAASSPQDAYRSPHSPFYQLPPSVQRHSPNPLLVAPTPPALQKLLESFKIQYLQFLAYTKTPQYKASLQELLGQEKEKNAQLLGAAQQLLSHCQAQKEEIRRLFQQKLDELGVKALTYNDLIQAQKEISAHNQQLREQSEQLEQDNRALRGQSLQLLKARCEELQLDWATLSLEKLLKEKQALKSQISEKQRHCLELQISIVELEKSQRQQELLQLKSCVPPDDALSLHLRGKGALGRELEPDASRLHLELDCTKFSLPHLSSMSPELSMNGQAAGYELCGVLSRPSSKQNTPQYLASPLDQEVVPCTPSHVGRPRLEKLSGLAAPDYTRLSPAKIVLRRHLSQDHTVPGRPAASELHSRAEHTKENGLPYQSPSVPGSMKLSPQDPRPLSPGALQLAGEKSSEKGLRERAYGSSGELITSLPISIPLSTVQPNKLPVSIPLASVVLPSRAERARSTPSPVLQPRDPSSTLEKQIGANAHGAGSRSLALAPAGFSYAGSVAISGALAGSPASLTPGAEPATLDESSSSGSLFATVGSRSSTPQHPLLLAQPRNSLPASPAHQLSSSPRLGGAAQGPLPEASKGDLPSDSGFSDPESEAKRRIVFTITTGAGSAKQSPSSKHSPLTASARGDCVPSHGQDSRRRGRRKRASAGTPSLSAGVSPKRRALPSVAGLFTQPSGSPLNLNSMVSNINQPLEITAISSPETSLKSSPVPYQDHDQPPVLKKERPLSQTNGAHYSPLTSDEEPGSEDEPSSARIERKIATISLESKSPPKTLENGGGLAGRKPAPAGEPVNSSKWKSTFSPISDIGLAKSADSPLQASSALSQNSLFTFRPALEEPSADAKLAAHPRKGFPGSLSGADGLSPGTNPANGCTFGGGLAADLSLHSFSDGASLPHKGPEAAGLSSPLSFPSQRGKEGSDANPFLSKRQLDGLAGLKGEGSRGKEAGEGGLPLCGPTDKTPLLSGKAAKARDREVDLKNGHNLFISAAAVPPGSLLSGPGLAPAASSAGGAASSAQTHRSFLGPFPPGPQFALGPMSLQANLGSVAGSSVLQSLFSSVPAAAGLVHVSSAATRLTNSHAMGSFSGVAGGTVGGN
The subject of assay [5] is MDA-MB-468. In words: Induction of molecular glue effect mediated DNMT1 degradation in human MDA-MB-468 cells assessed as reduction in DNMT1 protein level at 100 nM preincubated with MG132 for 2 hrs followed by compound addition and measured after 24 hrs by Western blot analysis. In kind it is cell-based.
In assay [6] the test system is MDA-MB-468. In words: Antiproliferative activity against human MDA-MB-468 cells assessed as inhibition of cell growth upto 10 uM incubated for 7 days by CCK8 assay relative to control. In kind it is functional. Conditions: time 7 day, up to 10 µM.
For assay [7], the target named is Protein arginine N-methyltransferase 1 (Homo sapiens) (UniProt Q99873). The assay is described as follows: Inhibition of human PRMT1 using histone H4 and SAM as substrate at 1 uM by radioisotope-based MT HotSpot assay relative to control.
Protein arginine N-methyltransferase 1 (Homo sapiens), sequence (Q99873 whole entry, looked up): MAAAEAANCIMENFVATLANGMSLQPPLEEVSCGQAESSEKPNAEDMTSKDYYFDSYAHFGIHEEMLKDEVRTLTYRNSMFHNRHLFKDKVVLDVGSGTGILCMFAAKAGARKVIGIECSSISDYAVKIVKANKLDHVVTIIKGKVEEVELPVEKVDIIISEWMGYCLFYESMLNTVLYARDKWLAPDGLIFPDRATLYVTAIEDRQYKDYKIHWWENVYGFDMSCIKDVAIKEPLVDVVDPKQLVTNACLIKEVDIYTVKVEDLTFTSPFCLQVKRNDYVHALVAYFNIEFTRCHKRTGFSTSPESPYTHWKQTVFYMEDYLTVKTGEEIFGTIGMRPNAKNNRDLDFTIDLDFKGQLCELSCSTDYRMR
In assay [8] the test system is HCT-116. The assay is described as follows: Induction of molecular glue effect mediated DNMT1 degradation in human HCT-116 cells assessed as reduction in DNMT1 protein level at 100 nM preincubated with TRAF6 inhibitor C25-140 for 2 hrs followed by compound addition and measured after 24 hrs by Western blot analysis. In kind it is cell-based.
For assay [9], the system named is HCT-116. In words: Induction of molecular glue effect mediated DNMT1 degradation in human HCT-116 cells assessed as reduction in DNMT1 protein level at 100 nM preincubated with TAK-243 for 2 hrs followed by compound addition and measured after 24 hrs by Western blot analysis. In kind it is cell-based.
In assay [10] the test system is HCT-116. In words: Induction of molecular glue effect mediated DNMT1 degradation in human HCT-116 cells assessed as reduction in DNMT1 protein level by measuring half-life at 500 nM preincubated with cycloheximide for 2 hrs followed by compound administration and measured after 24 hrs by Western blot analysis. Type of assay: cell-based.
Assay [11] addresses Histone-lysine N-methyltransferase EZH2 (Homo sapiens) (UniProt Q15910). In words: Inhibition of human EZH2 using core histone and SAM as substrate at 1 uM by radioisotope-based MT HotSpot assay relative to control.
Assay [12] addresses T1, Histone-lysine N-methyltransferase EHMT1 (Homo sapiens) (UniProt Q9H9B1).
T1 sequence (whole entry): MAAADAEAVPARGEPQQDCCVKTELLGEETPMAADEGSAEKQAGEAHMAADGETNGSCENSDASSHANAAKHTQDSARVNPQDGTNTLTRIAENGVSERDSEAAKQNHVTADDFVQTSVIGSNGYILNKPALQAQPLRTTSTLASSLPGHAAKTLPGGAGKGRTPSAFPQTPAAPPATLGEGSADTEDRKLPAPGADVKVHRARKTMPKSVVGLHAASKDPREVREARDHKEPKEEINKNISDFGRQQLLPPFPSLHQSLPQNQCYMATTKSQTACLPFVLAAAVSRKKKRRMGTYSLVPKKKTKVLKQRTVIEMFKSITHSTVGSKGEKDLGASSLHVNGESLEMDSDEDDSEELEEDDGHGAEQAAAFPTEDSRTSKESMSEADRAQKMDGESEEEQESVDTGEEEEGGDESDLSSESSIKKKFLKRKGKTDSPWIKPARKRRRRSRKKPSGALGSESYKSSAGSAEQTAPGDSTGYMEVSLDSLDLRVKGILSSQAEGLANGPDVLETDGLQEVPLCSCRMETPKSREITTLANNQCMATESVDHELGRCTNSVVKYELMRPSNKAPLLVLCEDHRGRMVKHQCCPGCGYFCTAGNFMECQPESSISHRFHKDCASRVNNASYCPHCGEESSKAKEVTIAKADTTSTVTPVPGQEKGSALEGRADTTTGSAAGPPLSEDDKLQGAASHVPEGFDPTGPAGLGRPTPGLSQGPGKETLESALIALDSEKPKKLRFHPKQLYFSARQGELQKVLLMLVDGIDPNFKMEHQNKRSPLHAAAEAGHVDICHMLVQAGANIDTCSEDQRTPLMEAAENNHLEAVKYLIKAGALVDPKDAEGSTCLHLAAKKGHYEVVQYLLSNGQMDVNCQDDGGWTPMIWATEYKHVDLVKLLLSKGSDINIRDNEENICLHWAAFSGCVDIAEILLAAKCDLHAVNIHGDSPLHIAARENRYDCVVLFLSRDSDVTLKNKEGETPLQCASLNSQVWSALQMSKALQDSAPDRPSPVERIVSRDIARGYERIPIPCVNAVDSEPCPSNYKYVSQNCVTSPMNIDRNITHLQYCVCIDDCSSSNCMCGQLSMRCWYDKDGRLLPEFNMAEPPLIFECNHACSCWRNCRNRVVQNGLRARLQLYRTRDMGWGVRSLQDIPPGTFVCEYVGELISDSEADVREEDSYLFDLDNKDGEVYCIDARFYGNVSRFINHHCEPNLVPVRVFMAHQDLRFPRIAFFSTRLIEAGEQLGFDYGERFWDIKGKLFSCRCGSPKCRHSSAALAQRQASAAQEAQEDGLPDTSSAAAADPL
In words: Inhibition of human GLP using Histone H3 and SAM as substrate at 1 uM by radioisotope-based MT HotSpot assay relative to control.

Calls of active or inactive are those of the source. No cut-off for these calls is given here.

Histone-lysine N-methyltransferase EZH2 (Homo sapiens), sequence (Q15910 whole entry, looked up): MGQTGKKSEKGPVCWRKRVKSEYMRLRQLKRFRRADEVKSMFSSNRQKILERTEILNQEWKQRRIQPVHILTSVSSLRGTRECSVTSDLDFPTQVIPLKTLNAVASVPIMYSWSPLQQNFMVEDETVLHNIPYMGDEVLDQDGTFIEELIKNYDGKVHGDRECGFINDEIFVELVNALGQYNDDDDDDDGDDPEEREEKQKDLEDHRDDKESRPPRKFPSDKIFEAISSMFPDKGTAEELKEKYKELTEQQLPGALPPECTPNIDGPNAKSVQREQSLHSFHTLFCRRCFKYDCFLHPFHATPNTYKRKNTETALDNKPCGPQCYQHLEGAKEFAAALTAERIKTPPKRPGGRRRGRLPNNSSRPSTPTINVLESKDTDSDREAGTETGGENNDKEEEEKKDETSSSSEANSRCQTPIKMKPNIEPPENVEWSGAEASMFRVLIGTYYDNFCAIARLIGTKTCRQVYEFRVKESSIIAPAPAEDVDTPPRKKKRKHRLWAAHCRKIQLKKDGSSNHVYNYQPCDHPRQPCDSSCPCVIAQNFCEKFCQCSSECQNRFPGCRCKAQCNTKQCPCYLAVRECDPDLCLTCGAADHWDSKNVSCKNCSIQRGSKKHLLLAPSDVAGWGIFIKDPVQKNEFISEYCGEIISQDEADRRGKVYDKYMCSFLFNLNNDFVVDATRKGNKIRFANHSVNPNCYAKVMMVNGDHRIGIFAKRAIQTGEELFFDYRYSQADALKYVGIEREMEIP

For `CCc1c(C#N)c(SC(C(N)=O)c2ccccc2)nc(N(C)CC(=O)NC)c1C#N` (configuration not stated), the DC50 in assay [1] was found to be 254 nM. Moreover, the result in the assay with HCT-116 [2], with MDA-MB-468 [5] and in the assay with HCT-116 [9] was inactive. Also, the result in the assay on HCT-116 [3] and with HCT-116 [8] was Active. In addition, the inhibition in [4], in assay [7], in assay [11] and in assay [12] was below 20% each time. The “inhibition (INH)” value with MDA-MB-468 [6] is on record as below 50%. Besides, the T1/2 in the assay with HCT-116 [10] is below 4 h.

The DC50 is the midpoint of the concentration-degradation curve. One may read the inhibition as the relative decrease from the control value, in per cent. A high value points to strong suppression.

The values are drawn from ChEMBL document CHEMBL6121066, “Structure-Activity Relationship Studies of DNA Methyltransferase 1 Monovalent Degraders” (J Med Chem, 2025).
